Usually IC50 stands for the concentration that inhibits the measured activity by half.

hsDHODH, sequence (Q02127 whole entry): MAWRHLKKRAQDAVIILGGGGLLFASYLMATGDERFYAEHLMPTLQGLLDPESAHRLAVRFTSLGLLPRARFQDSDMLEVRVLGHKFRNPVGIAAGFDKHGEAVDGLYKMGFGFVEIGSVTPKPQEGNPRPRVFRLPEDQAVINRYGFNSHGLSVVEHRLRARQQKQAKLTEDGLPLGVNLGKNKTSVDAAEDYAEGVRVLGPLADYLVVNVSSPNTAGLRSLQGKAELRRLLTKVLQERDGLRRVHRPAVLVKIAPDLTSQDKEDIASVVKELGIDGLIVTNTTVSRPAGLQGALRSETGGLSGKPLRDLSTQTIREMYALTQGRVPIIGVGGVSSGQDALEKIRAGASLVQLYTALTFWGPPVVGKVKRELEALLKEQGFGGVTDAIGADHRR

The first test addresses hsDHODH (Homo sapiens (Human), UniProt Q02127). Kind of test: Activity test at enzyme level: DHODH inhibition, DCIP absorbance at 600 nm. The test is classed as biochemical. The settings on record: pharmaceutically acceptable esters (prodrugs of A and B series), hsDHODH enzyme test; read-out: IC50. The procedure: Culture and Purification of hsDHODH Protein
The correctly sequenced recombinant plasmid pET-19b-DHODH was transformed into competent E. coli BL21 (DE3), and cultured on LB plate containing ampicillin. Colonies were randomly selected, inoculated into LB medium containing […], and incubate overnight at 37° C., 230 rpm. The cells were inoculated at a ratio of 1:200 in 500 mL of LB medium containing […] and expanded at 37° C., 230 rpm. When the OD value of the cells reached 0.8-1, IPTG was added into the medium to a final concentration of IPDG of 0.5 mM, and expression was induced overnight at 25° C. The induced cells were collected by centrifugation at […], 4° C., washed with deionized water, and centrifuged again to collect the bacterial pellet, which was stored at −80° C.
Purification of protein: cells were re-suspended in lysis liquid containing 50 mM HEPES (pH 8.0), 0.15 M NaCl, 10 mM imidazole, 10% glycerol, 0.1% Triton X-100, and a small amount of soy protease inhibitor added. After re-suspended and mixed homogeneously, cells were ultrasonically disrupted. The disruption solution was centrifuged for 30 min, and the supernatant and precipitate were taken for protein electrophoresis to determine the form of protein. The supernatant was loaded onto a Ni-NTA column, and the pass-through liquid was collected, and then the resin was washed for 3-4 times with a lysis liquid containing 20 mM imidazole, and finally eluted with a lysis liquid containing 300 mM imidazole. After elution, protein solution was collected. 10 μL of the above protein sample was taken for SDS-PAGE electrophoresis to determine the content of target protein. Finally, the eluted protein solution is dialyzed in the dialysis liquid to remove imidazole, thereby obtaining a pure protein.
Method for Testing Activities of Compounds at Enzyme Level
Principles of activity test at enzyme level: firstly, dihydroorotate (DHO) is oxidatively dehydrogenated by DHODH to form orotic acid (Orotate, OA), accompanied by reduction of Flavin mononucleotide (FMN) into reduced flavin mononucleotide (FMNH2) by accepting 2H+ and 2e−, then coenzyme Q (CoQ) as hydrogen acceptor accepting electron and proton from FMNH2 is reduced into reduced coenzyme Q (CoQH2), reduced coenzyme Q transfers electrons to a chromogenic substrate, […] (DCIP), and finally DCIP was reduced. […] The degree to which the substrate DHO is oxidized can be judged based on the degree of decrease in absorbance. The degree of oxidation of the substrate DHO per unit time is the initial rate of the enzymatic reaction. Upon addition of a inhibitor, the initial rate of the enzymatic reaction is reduced.
Substrate DHO was added to start the reaction with a DHO final concentration of 500 μM. The absorbance was read at 600 nm using a BioTek microplate reader and read every 30 s for 6 min. […] For calculating IC50 of a compound, Origin 8.0 was used to test the inhibition rate at least 8 concentrations.
Consider `CCCCOC(=O)c1ccccc1/C=N/N(C)c1nc(-c2ccccc2Cl)cs1` [Compound B4, (E)-4-(2-chlorophenyl)-2-[1-methyl-2-(2-butoxyformylbenzylidene)hydrazino]thiazole], for which the IC50 is above 50 µM.
Still for that read-out and setting: with `CN(C)C(=O)c1ccccc1/C=N/Nc1nc(-c2ccccc2Cl)cs1` [Compound A13, (E)-4-(2-chlorophenyl)-2-((N,N-Dimethyl)formylbenzylidenehydrazino)thiazole] the figure was above 50 µM; with `CCCCCOC(=O)c1ccccc1/C=N/Nc1nc(-c2ccccc2Cl)cs1` [Compound A6, (E)-4-(2-chlorophenyl)-2-(2-pentyloxyformylbenzylidenehydrazino)thiazole], above 50 µM; with `CCC(C)OC(=O)c1ccccc1/C=N/Nc1nc(-c2ccccc2Cl)cs1` (stereo not drawn) [Compound A5, (E)-4-(2-chlorophenyl)-2-(2-(2-butoxy)formylbenzylidenehydrazino)thiazole], 4.651 ± 0.0264 µM.
On the same count and under the same terms, with `CC(C)(C)C(=O)OCOC(=O)c1ccccc1/C=N/Nc1nc(-c2ccccc2Cl)cs1` [Compound A9, (Pivaloyloxy)methyl (E)-2-((2-(4-(2-chlorophenyl)thiazol-2-yl)hydrazono)methyl)benzoate] the figure was above 50 µM; with `CCCCCOC(=O)c1ccccc1/C=N/N(C)c1nc(-c2ccccc2Cl)cs1` [Compound B6, (E)-4-(2-chlorophenyl)-2-[1-methyl-2-(2-pentyloxyformylbenzylidene)hydrazino]thiazole], above 50 µM; with `CCOC(=O)c1ccccc1/C=N/N(C)c1nc(-c2ccccc2Cl)cs1` [Compound B1, (E)-4-(2-chlorophenyl)-2-[1-methyl-2-(2-ethoxyformylbenzylidene)hydrazino]thiazole], 2.79 ± 0.0465 µM.
Same read-out and setting: with `CCCOC(=O)c1ccccc1/C=N/N(C)c1nc(-c2ccccc2Cl)cs1` [Compound B2, (E)-4-(2-chlorophenyl)-2-[1-methyl-2-(2-propoxyformylbenzylidene)hydrazino]thiazole] the figure was 1.96 ± 0.111 µM; with `CCCCCCOC(=O)c1ccccc1/C=N/N(C)c1nc(-c2ccccc2Cl)cs1` [Compound B7, (E)-4-(2-chlorophenyl)-2-[1-methyl-2-(2-hexyloxyformylbenzylidene)hydrazino]thiazole], above 50 µM; with `CC(C)OC(=O)c1ccccc1/C=N/Nc1nc(-c2ccccc2Cl)cs1` [Compound A3, (E)-4-(2-chlorophenyl)-2-(2-isopropoxyformylbenzylidenehydrazino)thiazole], 1.86 ± 0.0214 µM.
On to `CN(/N=C/c1ccccc1C(=O)OCOC(=O)C(C)(C)C)c1nc(-c2ccccc2Cl)cs1` [Compound B10, (pivaloyloxy)methyl (E)-2-((2-(4-(2-chlorophenyl)thiazol-2-yl)-2-methylhydrazono)methyl)benzoate], for which the IC50 is above 50 µM.
The same measure, in the same setting: with `O=C(OC1CCCCC1)c1ccccc1/C=N/Nc1nc(-c2ccccc2Cl)cs1` [Compound A8, (E)-4-(2-chlorophenyl)-2-(2-cyclohexyloxyformylbenzylidenehydrazino)thiazole] the figure was above 50 µM; with `CCCOC(=O)c1ccccc1/C=N/Nc1nc(-c2ccccc2Cl)cs1` [Compound A2, (E)-4-(2-chlorophenyl)-2-(2-propoxyformylbenzylidenehydrazino)thiazole], 1.4 ± 0.0661 µM; with `CCOC(=O)c1ccccc1/C=N/Nc1nc(-c2ccccc2Cl)cs1` [Compound A1, (E)-4-(2-chlorophenyl)-2-(2-ethoxyformylbenzylidenehydrazino)thiazole], 2.34 ± 0.0468 µM.
On the same count and under the same terms, in the case of `CC(C)OC(=O)OCOC(=O)c1ccccc1/C=N/Nc1nc(-c2ccccc2Cl)cs1` [Compound A10, ((isopropoxycarbonyl)oxy)methyl (E)-2-((2-(4-(2-chlorophenyl)thiazol-2-yl)hydrazono)methyl)benzoate] it was above 50 µM; in that of `O=C(OCc1ccccc1)c1ccccc1/C=N/Nc1nc(-c2ccccc2Cl)cs1` [Compound A11, (E)-4-(2-chlorophenyl)-2-(2-benzyloxyformylbenzylidenehydrazino)thiazole], above 50 µM.
`CCCCCCOC(=O)c1ccccc1/C=N/Nc1nc(-c2ccccc2Cl)cs1` [Compound A7, (E)-4-(2-chlorophenyl)-2-(2-hexyloxyformylbenzylidenehydrazino)thiazole]: the IC50 is above 50 µM.
Take `CCCCOC(=O)c1ccccc1/C=N/Nc1nc(-c2ccccc2Cl)cs1` [Compound A4, (E)-4-(2-chlorophenyl)-2-(2-butoxyformylbenzylidenehydrazino)thiazole]: the IC50 is 3.53 ± 0.148 µM.

The test is the same for the next values; noted with them: purified DHODH 10 nM, DHO 500 μM, CoQ 100 μM, DCIP 120 μM; read-out: IC50 (μM) hsDHODH.
For the compound `CN(/N=C/c1ccccc1C(=O)O)c1nc(-c2cc(Cl)ccc2Cl)cs1` [Compound 19, (E)-4-(2,5-dichlorophenyl)-2-[1-methyl-2-(2-carboxybenzylidene)hydrazino]thiazole], the IC50 stood at 0.0282 µM.
Still for that read-out and setting: with `CCCC(C)N(/N=C/c1ccccc1C(=O)O)c1nc(-c2ccccc2Cl)c(C)s1` (stereo not drawn) [Compound 22, (E)-5-methyl-4-(2-chlorophenyl)-2-[1-(2-amyl)-2-(2-carboxybenzylidene)hydrazino]thiazole] the figure was 0.0154 ± 0.0002 µM.
The same measure, in the same setting: in the case of `Cc1sc(N/N=C/c2ccccc2C(=O)O)nc1-c1ccccc1` [Compound 17, (E)-5-methyl-4-phenyl-2-(2-carboxylbenzylidenehydrazino)thiazole] it was 0.0811 ± 0.0001 µM.
The same measure, in the same setting: in the case of `O=C(O)c1c(F)cccc1/C=N/Nc1nc(-c2ccccc2Cl)cs1` [Compound 58, (E)-2-((2-(4-(2-chlorophenyl)thiazol-2-yl)hydrazono)methyl)-6-fluorobenzoic acid] it was 0.234 ± 0.0068 µM.
For `Cc1sc(N(C)/N=C/c2ccccc2C(=O)O)nc1-c1ccccc1` [Compound 12, (E)-5-methyl-4-phenyl-2-[1-methyl-2-(2-carboxybenzylidene)hydrazino]thiazole], the IC50 came out at 0.0088 ± 0.0001 µM.
`CN(/N=C/c1ccc(F)cc1C(=O)O)c1nc(-c2ccccc2Cl)cs1` [Compound 10, (E)-4-(2-chlorophenyl)-2-[1-methyl-2-(2-carboxyl-4-fluorobenzylidene)hydrazino]thiazole]: the IC50 was 0.0018 ± 0.0001 µM.
Take `CN(/N=C/c1ccccc1C(=O)O)c1nc(-c2cccc(Cl)c2)cs1` [Compound 21, (E)-4-(3-chlorophenyl)-2-[1-methyl-2-(2-carboxybenzylidene)hydrazino]thiazole]: the IC50 amounted to 0.0106 µM.
The same measure, in the same setting: with `CCCC(C)N(/N=C/c1ccccc1C(=O)O)c1nc(-c2ccccc2Cl)cs1` (stereo not drawn) [Compound 6, (E)-4-(2-chlorophenyl)-2-[1-(2-amyl)-2-(2-carboxybenzylidene)hydrazino]thiazole] the figure was 0.0191 ± 0.0006 µM; with `CCCN(/N=C/c1ccccc1C(=O)O)c1nc(-c2ccccc2Cl)cs1` [Compound 3, (E)-4-(2-chlorophenyl)-2-[1-propyl-2-(2-carboxybenzylidene)hydrazino]thiazole], 0.0086 ± 0.0001 µM; with `CCc1sc(N/N=C/c2ccccc2C(=O)O)nc1-c1ccccc1Cl` [Compound 14, (E)-5-ethyl-4-(2-chlorophenyl)-2-(2-carboxylbenzylidenehydrazino)thiazole], 0.356 ± 0.0064 µM.
Same read-out and setting: with `CN(/N=C/c1cc(O)c(F)cc1C(=O)O)c1nc(-c2ccccc2Cl)cs1` [Compound 24] the figure was 0.0214 ± 0.0005 µM; with `Cc1ccc(/C=N/N(C)c2nc(-c3ccccc3)c(C)s2)c(C(=O)O)c1` [Compound 11, (E)-5-methyl-4-phenyl-2-[1-methyl-2-(4-methyl-2-carboxybenzylidene)hydrazino]thiazole], 0.0136 ± 0.0005 µM.
On the same count and under the same terms, with `Cc1ccc(/C=N/N(C)c2nc(-c3ccccc3Cl)cs2)c(C(=O)O)c1` [Compound 9, (E)-4-(2-chlorophenyl)-2-[1-methyl-2-(4-methyl-2-carboxybenzylidene)hydrazino]thiazole] the figure was 0.0084 ± 0.0001 µM; with `CN(/N=C/c1cc(F)c(F)cc1C(=O)O)c1nc(-c2ccccc2Cl)cs1` [Compound 23], 0.0044 µM.
Regarding `CN(/N=C/c1ccccc1C(=O)O)c1nc(-c2ccccc2)cs1` [Compound 20, (E)-4-phenyl-2-[1-methyl-2-(2-carboxybenzylidene)hydrazino]thiazole], the IC50 is 0.0244 ± 0.0005 µM.

The values are drawn from US10919869B2, “Thiazole derivative and applications” (EAST CHINA UNIVERSITY OF SCIENCE AND TECHNOLOGY, priority 2016, dated 2021).
